Data as given in a melting point compilation (Tetko et al.; mined from patent text by program, amines drawn as free bases though some values may be those of a salt).

SMILES	melting point
Fc1ccc(C2CC(n3ccnc3)c3ccccc3N2)cc1 (stereo not given)	168 to 170 °C
N#Cc1c(N2CCCC2)cccc1[N+](=O)[O-]	111 to 113 °C
OC12N=C(c3ccccc3)SC1Cc1cc(Cl)ccc12 (stereo not given)	155 °C
CC(C)(C)OC(=O)N1CCCC(C(=O)OCC(=O)C(C)(C)C)(C(=O)OCc2ccccc2)C1 (stereo not given)	60 °C
Cn1c2cccc(Br)c2c2c(CC(=O)N3CCCC3)nn(-c3ccccc3)c(=O)c21	209 to 210 °C
C#CCn1nc(-c2cc(C(C)(C)C)c(O)c(C(C)(C)C)c2)c2cccnc21	172 to 174 °C
CC(=O)Oc1c(C)c2c(-c3ccc(C(C)C)cc3)coc2c2ccccc12	118 to 119 °C
CCCCn1nc(C=O)nc1Cc1ccc(-c2ccccc2-c2nnn[nH]2)nc1	167 to 168 °C
O=C1CCCCc2ccccc21	79 to 84 °C
CN1CC(CCCl)Oc2cc3ccccc3cc2C1=S (stereo not given)	166 to 168 °C
CCc1ccccc1NC=C1C(=O)N(c2ccc(N(S(C)(=O)=O)S(C)(=O)=O)cc2)N=C1C	268 °C
S=C(Nc1ccccc1)Nc1ncccc1OCc1ccc(Cl)cc1	162 to 164 °C
CSc1nc(=O)n(C(C)(C)C)c(=O)[nH]1	112 to 115 °C
CC(O)(CCC#N)c1ccc(-c2ccc(F)cc2)cc1 (stereo not given)	118 to 120 °C
O=C(O)C(CCc1ccccc1)NC1CCc2ccccc2NC1=O (stereo not given)	173 to 175 °C
CCCc1nc(C)c2c(=O)[nH]c(C)nn12	228 to 231 °C
CCNC(=S)NC1CCCCc2sccc21 (stereo not given)	117 to 120 °C
N#Cc1cccc(-c2ccc3c(Cl)c[nH]c(=O)c3c2)c1	> 300 °C
CCCc1c(OCCCC(=O)NCCCc2cccnc2)ccc(C(C)=O)c1O	97 to 98 °C
CC(C)=CCN1[C@H](C)Cn2c(=S)[nH]c3cccc(c32)[C@@H]1C (relative stereo)	138 °C
COc1ccc2c3c1OC1C(=O)CCC4(OC)C(C2)N(C)CCC314 (stereo not given)	140 to 142 °C
CC(=O)OC1CCC2(C)C(=CC(=O)C3C2CCC2(C)C(OC(C)=O)CCC32)C1 (stereo not given)	220 to 221 °C
O=C(O)c1ccc(SCC(=O)C23CC4CC(CC(C4)C2)C3)nc1	174 to 176 °C
O=C(CCCl)N1c2ccccc2CCc2ccccc21	107 to 108 °C

SMILES	melting point
COCOc1c(Br)cccc1-c1ccc2c(c1)C(C)(C)CCC2(C)C	74 °C
CN1CCc2c(Cl)ccc3c4c(n(c23)CC1)CCC4	138 to 140 °C
c1ccc(CN2CCN(Cc3n[nH]c4ccccc34)CC2)cc1	130 to 131 °C
CC(c1oc2ccccc2c(=O)c1-c1cccc(F)c1)n1nc(-c2ccc(Cl)s2)c2c(N)ncnc21 (stereo not given)	226 to 229 °C
CN1CC(CNC(=N)NC(=O)c2cccnc2)CC2c3cccc4c3c(cn4C)CC21 (stereo not given)	207 to 209 °C
O=[N+]([O-])c1ccc(N(CCBr)S(=O)(=O)c2ccccc2)cc1	168 °C
Cn1nc(C(F)(F)F)c(CN2C(=O)C3(COc4cc5c(cc43)OCO5)c3ccccc32)c1Cl (stereo not given)	180 to 182 °C
CC(C)Oc1cc([N+](=O)[O-])ccc1-n1cccc1	59 to 61 °C
Cc1c(NC(=O)c2ccc(-c3ccccc3)cc2F)ccc2cc(CN3CCCCC3)cnc12	187 to 188 °C
Clc1cccc(C(Cl)Cl)n1	48 to 52 °C
COC(=O)Cc1ccc(OCc2ccc(OCc3nc(-c4ccccc4)oc3C)cc2)cc1	93 to 94 °C
Nc1ccc2ccc(Oc3ccccc3F)nc2n1	206 °C
OC1CSC(Oc2cccc(-c3cncnc3)c2)C(O)C1O (stereo not given)	241 °C
Cc1c2n(c3ccccc13)C(=O)C(C)(Cc1ncn(C(c3ccccc3)(c3ccccc3)c3ccccc3)c1C)CC2 (stereo not given)	116 to 118 °C
CN(C)CC#Cc1cc(CC2CCOCC2)cc2c(=O)c(C(=O)NCc3ccc(Cl)cc3)cn(C)c12	157 to 159 °C
CCO[C@@H](Cc1ccc(OCCN2CCC(C)(C)c3cc(C(=NOC)c4ccc(C(=O)O)cc4)ccc32)cc1)C(=O)O	83 to 85 °C
COc1cc2c(c(OC)c1OC)CN(CCc1ccc([N+](=O)[O-])cc1)CC2	110 °C
CCCCc1oc2ccccc2c1-c1ncc(-c2ccc3cc(OC(Cc4ccccc4)C(=O)OC)ccc3c2)o1 (stereo not given)	122 to 124 °C
O=Cc1c[nH]c2cc(F)c(OCc3ccccc3)cc12	190 °C
COc1ccccc1CC(=O)c1c(O)c2cccnc2n(-c2ccccc2)c1=O	203 to 205 °C
O=C1Nc2cc3c(cc2OC1CCCBr)CCCC3 (stereo not given)	139 to 140 °C
O=C(c1ccc(C2=CCCc3ccccc32)cc1)N1Cc2cccn2Cc2ccccc21	81 °C
O=C1Nc2cccc(-c3cccc(C(F)(F)F)c3)c2/C1=C/c1ccc[nH]1	197 to 198 °C

Other lines, results leading:

melting point	SMILES
195 to 196 °C	CC(C)(C)c1cc(OCc2n[nH]c(=S)o2)cc(C(C)(C)C)c1O
115 to 117 °C	COC(=O)c1cc(NC(=O)C2=C(C)OCCS2)ccc1Cl
170 to 172 °C	Cc1nc(-n2ccccc2=O)sc1C(=O)NCc1ccc(F)cc1
89 to 90 °C	COC(=O)c1cc(OC(C)C)nn1Cc1ccc(Cl)cc1Cl
208 to 210 °C	C#CC1(OC(=O)CC)C(COC(=O)c2ccc(Cl)cc2)OC(n2ccc(=O)[nH]c2=O)C1OC(=O)CC (stereo not given)
160 °C	CC(C)(c1cc(F)cc([N+](=O)[O-])c1O)c1cc(Cl)cc([N+](=O)[O-])c1O
199 to 201 °C	COc1ccc2ccccc2c1C1OC(=O)NC1=O (stereo not given)
217 to 218 °C	NC(=O)c1nccc(Oc2ccc(N)cc2F)c1Cl
139 to 141 °C	O=C(O)C1CCC(=O)N1Cc1ccccc1C(F)(F)F (stereo not given)
45 to 46 °C	CCOC(=O)NCCOc1ccc(Oc2cccc(Cl)c2)cc1
107 to 112 °C	CCOC(=O)C(Cc1ccc(-c2ccco2)cc1)NC(=O)C1(NC(=O)OC(C)(C)C)CCCC1 (stereo not given)
154 °C	CN(C)S(=O)(=O)c1cc2c(c(Cl)c1Cl)OC(C(=O)O)C2 (stereo not given)
109 to 112 °C	CS(=O)(=O)Nc1ccc2c(c1)C(=O)CC1(CCN(CCc3ccc(N)c(N)c3)CC1)O2
130 to 131 °C	Cc1ccnc2c1C(=O)c1ccccc1-2
74 to 76 °C	COC(=O)c1[nH]c(C)c(C)c1OCCCCCl
55 to 59 °C	COc1ccc2c(c1)CCC(=O)C2CC(=O)c1ccccc1 (stereo not given)
244 to 246 °C	CC1(C)Oc2ccccc2C(c2ccc[nH]c2=O)C1O (stereo not given)
75 to 77 °C	COc1ccc2c(c1)C(CC#N)CN(C(=O)OC(C)(C)C)C2 (stereo not given)
166 to 167 °C	CCc1cccc(C)c1CNc1nc(OC)cc(NC)c1[N+](=O)[O-]
219 to 220 °C	COC(=O)c1cc2cc(S(N)(=O)=O)sc2s1
198 to 200 °C	CCOC(=O)c1cn(-c2cccs2)c2c(F)c(F)c(F)c(C)c2c1=O
207 to 210 °C	CS(=O)(=O)c1ccc(-c2nc(C(F)(F)F)nc(Cl)c2-c2ccc(S(=O)(=O)Cl)cc2)cc1
286 to 288 °C	O=C(O)c1cc(C(=O)O)cc(S(=O)(=O)Nc2ccc(F)c(C(F)(F)F)c2)c1
172 to 173 °C	NC(=O)NCc1ccc2ccn(C3CCN(CCc4ccc(F)cc4)CC3)c2c1
74 to 77 °C	Cc1cc(SC2=C(O)CC(CCC(C)C)(C3CCCC3)OC2=O)c(C(C)(C)C)cc1CO (stereo not given)
60 to 61 °C	CCNc1c(C(=O)OCC)c(C)nc2c1nnn2CC
187 to 190 °C	COc1cc2ncc(C#N)c(Oc3cccc(Br)c3)c2cc1OC

melting point	SMILES
70 to 71 °C	Cc1sc(-c2ccccc2)nc1COc1ccc(CO)cn1
106 to 107 °C	CCOC(=O)/C=C/c1ccc(OCCCC#N)cc1Oc1ncc(C(F)(F)F)cc1Cl
182 °C	CN(C1CCSCC1)S(=O)(=O)c1ccc(Nc2nccc(Nc3ccc(F)cc3)n2)cc1
197 to 199 °C	Cn1nc(OC2c3cc(C#N)ccc3OC(C)(C)C2(C)O)ccc1=O (stereo not given)
160 to 163 °C	CCOC(=O)Cc1ccc(NC(=O)Nc2ccccc2Br)c(OC)n1
172 to 173 °C	CCCNc1cc(=O)[nH]c(-c2ccccc2OCCC)n1
191 to 193 °C	CC(C)ON=Cc1cc(-n2c(=O)cc(C(F)(F)F)[nH]c2=O)ccc1Cl
176 °C	CCOC(=O)C1=C(N)NC(N)=C(C(=O)OCC)C1c1cccc(C#N)c1
142 to 143 °C	O=C(OCc1cccnc1)c1ccc(F)cc1
227 to 228 °C	COc1ncc(Cc2n[nH]c(=O)c3ccccc23)cc1Br
201 to 202 °C	CC(=Cc1cccc([N+](=O)[O-])c1)C(=O)O
166 to 168 °C	O=C1C2=NCCCN2c2ccc(Br)cc21
174 to 176 °C	CC(=O)N[C@@H]1CCCC[C@H]1NS(=O)(=O)c1ccc(C)cc1 (relative stereo)
124 to 126 °C	COc1cc(N)c(Cl)cc1C(=O)NC1CCN(CC2CCN(C(=O)N(C)C)CC2)CC1
102 to 103 °C	COC(=O)/C=C/n1cnc2c(C(C)C)cc(C(C)C)cc2c1=O
165 to 167 °C	Cn1c(COc2ccc(CC3SC(=O)NC3=O)cc2)nc2ccc(Oc3cccc(NC(=O)Nc4ccccc4)c3)cc21 (stereo not given)
180 to 183 °C	COc1cc(-c2oc3c(OC)cc(/C=C/CO)cc3c2C)ccc1O
153 to 155 °C	COCC(O)COc1ccc2nc(S(N)(=O)=O)sc2c1 (stereo not given)
91 to 92 °C	O=C(NS(=O)(=O)c1ccccc1C(=O)OC1COC1)Oc1ccccc1
292 to 293 °C	O=C(Nc1nc(-c2ccccc2)cs1)C(=O)Nc1nc(-c2ccccc2)cs1
93 to 94 °C	CCCCS(=O)(=O)Nc1ccccc1OCc1ccc2ccccc2n1
61 to 63 °C	Nc1cc(Cl)cc(Cl)c1I
105 to 106 °C	COC(=O)c1cccc(-c2cccc(Oc3cccc(Cl)c3Cl)n2)c1
254 °C	CS(=O)(=O)c1cccc(-c2ccc3cnc(Nc4ccc(C5CCN(CC(N)=O)CC5)cc4)nn23)c1
119 to 120 °C	COc1cc(C=C(C=O)C(C=O)=Cc2ccc(OC(C)C)c(OC)c2)ccc1OC(C)C
186 to 188 °C	COc1ccc2c(c1)CN(C(C)=O)N=C2Cc1c(Cl)cncc1Cl
